Measured values: patent US20200171015A1, “METHODS OF TREATMENT FOR CYSTIC FIBROSIS” (Vertex Pharmaceuticals Incorporated, priority 2017, published 2020)
Marks after values point to notes of the source that are not given here.

Experiments:
[1] = Example 4: randomized, double-blind, placebo-controlled single- and multiple-dose escalation study, safety and tolerability; assay type: in vivo, human; settings: healthy volunteers
Excerpt: A randomized, double-blind, placebo-controlled, single- and multiple-dose, dose-escalation study was conduced in healthy volunteer subjects. Subjects were randomized to receive Compound I or placebo (Part A and Part B), and triple combination of Compound I, Compound II, and Compound III, or triple placebo (Part C).

[2] = Previous studies of Compound I, safety and tolerability; assay type: in vivo, human
[3] = test system: people with CF who have one F508del mutation and one minimal function mutation (F/MF); assay: Phase 2 study Part 1: efficacy (ppFEV1, sweat chloride, CFQ-R); assay type: in vivo, human; settings: Part 1 F/MF
Method: (§1) The safety of Compound I in triple combination with Compounds II and III is evaluated in CF subjects in a 2-part, randomized, double-blind, placebo- and Compound II/III-controlled, parallel-group, multicenter study. Parts 1 and 2 include a Screening Period, a 2-week Treatment Period, and a Safety Follow-up Visit. Part 2 also includes a 4-week Run-in Period before the Treatment Period and a 2-week Washout Period after the Treatment Period.
In Part 1, three dose levels of Compound I (100, 200, and 300 mg q12h) in triple combination with Compound II (100 mg qd) and Compound III (150 mg q12h) is evaluated in subjects with the F508del/MF genotype.
Part 1 has three cohorts (Cohorts IA, IB, and IC). In Cohort 1A, the triple combination of Compound I at 100 mg q12h, Compound II at 100 mg qd, and Compound III at 150 mg q12h is evaluated in subjects with the F508del/MF genotype. In Cohort IB, the triple combination of Compound I at 200 mg q12h, Compound II at 100 mg qd, and Compound III at 150 mg q12h is evaluated in subjects with the F508del/MF genotype. In Cohort IC, the triple combination of Compound I at 300 mg q12h, Compound II at 100 mg qd, and Compound III at 150 mg q12h is evaluated in subjects with the F508del/MF genotype. Triple placebo is the comparator for all three cohorts
(§2) Primary endpoints for the study include: safety and tolerability assessments based on adverse events (AEs), clinical laboratory values, standard 12-lead electrocardiograms (ECGs), vital signs, and pulse oximetry. Secondary endpoints include: absolute change in sweat chloride concentrations from baseline at Day 15; absolute change in percent predicted forced expiratory volume in 1 second (ppFEV1) from baseline at Day 15; relative change in ppFEV1 from baseline at Day 15; absolute change in Cystic Fibrosis Questionnaire-Revised (CFQ-R) respiratory domain score from baseline at Day 15; and PK parameters of Compound I, Compound II, Compound III, and metabolites of Compounds II and III.
(§3) In this Phase 2 randomized, double-blind study, Compound I (100 mg, 200 mg and 300 mg q12h) in combination with Compound II (100 mg qd) and Compound III (150 mg q12h) in people with CF ages 18 and older who have one F508del mutation and one minimal function mutation and in people who have two copies of the F508del mutation was studied. Primary endpoints as described above in Example 6 were for safety and tolerability. Secondary endpoints included absolute change in ppFEV1 and change in sweat chloride.
In Part 1 of the study, the triple combination was evaluated for two weeks in 34 patients ages 18 and older who had one F508de/mutation and one minimal function mutation (8 in combined placebo, 6 in Compound I 100 mg, 10 in Compound 1 200 mg, and 10 in Compound 1 300 mg). A summary of the within-group ppFEV (primary endpoint) and sweat chloride data (secondary endpoint) through Day 15 is provided below.

[4] = test system: people with CF who have two copies of the F508del mutation (F/F); assay: Phase 2 study Part 2: efficacy (ppFEV1, sweat chloride); assay type: in vivo, human; settings: Part 2 F/F
Method: as §1
In Part 2, two dose levels of Compound I (200 and 300 mg q12h) in triple combination with Compound II (100 mg qd) and Compound III (150 mg q12h) is evaluated in subjects with the F508del/F508del genotype.
Part 2 has two cohorts (Cohorts 2A and 2B). In Cohort 2A, the triple combination of Compound I at 200 mg q12h, Compound II at 100 mg qd, and Compound III at 150 mg q12h is evaluated in subjects with the F508del/F508del genotype. In Cohort 2B, the triple combination of Compound I at 300 mg q12h, Compound II at 100 mg qd, and Compound III at 150 mg q12h is evaluated in subjects with the F508del/F508del genotype. The combination of placebo, Compound II, and Compound III is the comparator for both cohorts.
as §2, §3
In Part 2 of the study, the triple combination was evaluated for two weeks in 14 patients ages 18 and older who had two copies of the F508del mutation, who were already receiving the combination of Compound II and Compound III (4 weeks, 4 in placebo and 10 in Compound I 200 mg). A summary of the within-group lung function (ppFEV) (primary endpoint) and sweat chloride data (secondary endpoint) for the triple combination treatment period, from baseline (end of the 4-week Compound II/Compound III run-in period), through Day 15 is provided below.
A summary of the within-group lung function (ppFEV) (primary endpoint) and sweat chloride data (secondary endpoint) from patients in Part 2 of the study who received the triple combination including 300 mg of Compound I for 4 weeks is provided below.

[5] = Preclinical reproductive toxicology studies; settings: in vivo
CFTR = settings: disclosed in PCT Publication No. WO 2016/057572; cited from earlier work
[6] = Compound I 100 mg in triple combination with Compound II and Compound III, n 6
[7] = Compound I 200 mg in triple combination with Compound II and Compound III, n 10
[8] = Compound I 300 mg in triple combination with Compound II and Compound III, n 21

CC(C)COc1cc(F)cc(-c2ccc(C(=O)NS(=O)(=O)c3cccc(N)n3)c(N3C[C@@H](C)CC3(C)C)n2)c1 [Compound I, N-[(6-amino-2-pyridyl)sulfonyl]-6-(3-fluoro-5-isobutoxy-phenyl)-2-[(4S)-2,2,4-trimethylpyrrolidin-1-yl]pyridine-3-carboxamide]
Deaths, serious or severe adverse events ([1]; all parts of the study): no deaths or serious or severe adverse events
Severity of adverse events ([1]; all parts of the study): mild or moderate
Dose-limiting adverse events ([1]; multiple doses of 800 mg q12h): Dose-limiting adverse events were observed
Tolerability ([1]; multiple doses up to 400 mg q12h for 14 days): well tolerated
Tolerability ([1]; single doses from 50 mg up to 2000 mg): well tolerated
Tolerability ([1]; up to 300 mg q12h in triple combination with Compound II (100 mg qd) and Compound III (150 mg q12h) for 13 days): well tolerated
Safety and tolerability ([2]; multiple doses up to 300 mg q12h in combination with Compound II (100 mg qd) and Compound III (150 mg q12h), after 14 days of dosing): generally safe and tolerated
Safety and tolerability ([2]; single doses up to 2000 mg and multiple doses up to 400 mg q12h): generally safe and well tolerated
Hemolysis ([2]; subjects with glucose-6-phosphate dehydrogenase (G6PD) deficiency): treatment-emergent hemolysis in a subject who was found to have glucose-6-phosphate dehydrogenase (G6PD) deficiency
Sweat Chloride, Abs. Change from Baseline, Day 15 Results [3, 6]: −19.5
ppFEV1, Abs. Change from Baseline, Day 15 Results [3, 6]: 5.7
ppFEV1, Abs. Change from Baseline, Day 15 Results [3, 7]: 9.7
Sweat Chloride, Abs. Change from Baseline, Day 15 Results ([3]; Compound I 200 mg in triple combination with Compound II and Compound III, n 10, missing data from 2 subjects): −13.6^a
Sweat Chloride, Abs. Change from Baseline, Day 15 Results ([3]; Compound I 300 mg in triple combination with Compound II and Compound III, n 10): −27.5
ppFEV1, Abs. Change from Baseline, Day 15 Results ([3]; Compound I 300 mg in triple combination with Compound II and Compound III, n 10, missing data from 2 subjects): 8.0^a
Sweat Chloride, Abs. Change from Baseline, Day 15 Results [4, 7]: −21.3
ppFEV1, Abs. Change from Baseline, Day 15 Results [4, 7]: 7.3
Sweat Chloride, Abs. Change from Baseline, Day 15 Results [4, 8]: −23.9
Sweat Chloride, Abs. Change from Baseline, Day 29 Results [4, 8]: −22.3
ppFEV1, Abs. Change from Baseline, Day 15 Results [4, 8]: 5.1
ppFEV1, Abs. Change from Baseline, Day 29 Results [4, 8]: 6.5
Findings in preclinical reproductive toxicology studies [5]: no adverse findings of note
EC30 as CFTR modulator (CFTR): < 3000 nM
